Measurements taken from article PMC3404986, “Pyridoxal 5′-Phosphate Is a Slow Tight Binding Inhibitor of E. coli Pyridoxal Kinase” (PLoS ONE, 2012).

Assays:
[1] = target: T1, ePL kinase (E. coli pyridoxal kinase 1, PL kinase1) (Escherichia coli, UniProt P40191); assay: Sephadex G-50 spin column, absorbance of bound PLP at […] nm; settings: PLP without nucleotide, 0.2 mM MgCl2, pH 7.5, 37°C; slow tight binding inhibitor; covalent, reversible aldimine, K229 suggested
T1 construct: gene pdxK; full length, recombinant from E. coli; wild type untagged (as previously described); K229Q His-tagged (C-terminus; pET28a NdeI/EcoRI)

[2] = target: T1, ePL kinase (E. coli pyridoxal kinase 1, PL kinase1); assay: CD at […] nm, bound PLP removed by PLP phosphatase; assay type: binding; settings: complex formed from PL + MgATP; 10 µM PLP phosphatase as trap, pH 7.5, 37°C; covalent, reversible aldimine; only part of the PLP released
[3] = target: T1, ePL kinase (E. coli pyridoxal kinase 1, PL kinase1); assay: size-exclusion chromatography, then coupled enzymatic ADP assay of denatured complex; assay type: binding; settings: complex from PLP 0.5 mM + MgADP 1 mM + MgCl2 0.5 mM, pH 7.5, 37°C, 1 h; ternary complex with PLP
Description: size-exclusion chromatography, then coupled enzymatic ADP assay of denatured complex on ePL kinase (E. coli pyridoxal kinase 1, PL kinase1)

Row | Structure (SMILES) | Rate of complex formation [1] [min⁻¹] | rate of dissociation [2] [min⁻¹] | %ADP [3] [%]
1 | Cc1ncc(COP(=O)(O)O)c(C=O)c1O [PLP] | 0.16 | 0.012 | –
2 | Nc1ncnc2c1ncn2[C@@H]1O[C@H](COP(=O)(O)OP(=O)(O)O)[C@@H](O)[C@H]1O [MgADP] | – | – | 43
